Experimental data published in US20210330611A1, “THERAPY FOR NEUROLOGICAL DISEASES/DISORDERS” (priority 2020, published 2021).
Where a name gives a salt, the structure may show the parent alone. Read-outs that look alike come from different tables or passages of the source.

How the values were obtained:
primary rat microglia [1] = assay: Cell toxicity (dead cells, size <150 μm2) in coated fibrin (cFib) assay; settings: for IC50: read-out: Cell Toxicity IC50 (uM) [cFib assay];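 for Fibrin % cell toxicity: share of dead cells sized under 150 µm2 at 10 µM in fibrin-stimulated microglia HTS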
[2] = tested on: fibrin-induced microglia activation; assay: Image-based assay of fibrin-induced microglia activation (HTS and dose response); type: cell-based, rat; settings: for inhibition at 10 µM: Rattus norvegicus, Microglia, read-out: Fibrin % inhibition
[3] = tested on: LPS-induced microglia activation; assay: Image-based assay of LPS-induced microglia activation (HTS and dose response); type: cell-based, rat; settings: for inhibition at 10 µM: Rattus norvegicus, Microglia, read-out: LPS % inhibition
primary rat microglia [4] = assay: Cell toxicity (dead cells, size <150 μm2) in LPS assay; settings: for IC50: read-out: Cell Toxicity IC50 (uM) [LPS assay]
[5] = tested on: fibrin- and LPS-induced microglia activation; assay: cells; type: cell-based, rat
[6] = primary microglia HTS, 10 μM, fibrin assay, cell size <150 μm^2 as marker of toxicity
[7] = primary microglia HTS, 10 μM, fibrin-stimulated, cell size >800 μm^2 as marker of activation
[8] = primary microglia HTS, 10 μM, LPS-stimulated, cell size >800 μm^2 as marker of activation
[9] = primary microglia HTS, 10 μM, LPS assay, cell size <150 μm^2 as marker of toxicity
[10] = HTS of 1907 compounds, quadrant by fibrin and LPS inhibition
[11] = primary HTS, 10 μM, fibrin assay, dead cells size <150 μm2
[12] = primary HTS, 10 μM, fibrin-stimulated primary microglia
[13] = primary HTS, 10 μM, LPS-stimulated primary microglia
[14] = primary HTS, 10 μM, LPS assay, dead cells size <150 μm2
[15] = primary microglia HTS, fibrin stimulation, decreased size (<150 μm^2) as marker of toxicity
[16] = primary microglia HTS, fibrin stimulation, increased cell size (>800 μm^2) as marker of activation
[17] = 48 h, primary microglia HTS, LPS stimulation, increased cell size (>800 μm^2) as marker of activation
[18] = primary microglia HTS, LPS stimulation, decreased size (<150 μm^2) as marker of toxicity
[19] = quadrant by fibrin and LPS inhibition in HTS of 1907 compounds
[20] = primary microglia HTS, fibrin stimulation, toxicity = cell size <150 μm2
[21] = primary microglia HTS, fibrin stimulation, activation = cell size >800 μm2
[22] = 48 h, primary microglia HTS, LPS stimulation, activation = cell size >800 μm2
[23] = primary microglia HTS, LPS stimulation, toxicity = cell size <150 μm2

CC(C)(C)NCC(O)c1cc(O)cc(O)c1 (centres unmarked) [Terbutaline]
Fibrin % cell toxicity (primary rat microglia [1]; [6]): 1%
inhibition at 10 µM [2, 7]: 39%
inhibition at 10 µM [3, 8]: 28%
LPS % cell toxicity (primary rat microglia [4]; [9]): 0%
Quadrant (FIG. 5b) [5, 10]: Q4

COc1ccccc1N1CCN(CCCNc2cc(=O)n(C)c(=O)n2C)CC1 [Urapidil Hydrochloride]
Fibrin % cell toxicity (primary rat microglia [1]; [6]): 1%
inhibition at 10 µM [2, 7]: -6%
inhibition at 10 µM [3, 8]: 20%
LPS % cell toxicity (primary rat microglia [4]; [9]): 0%
Quadrant (FIG. 5b) [5, 10]: Q4

CC(C)(C)CC(C)(C)c1ccc(O)c(Cc2ccc(Cl)cc2Cl)c1 [Clofoctol]
Fibrin % cell toxicity (primary rat microglia [1]; [11]): 0%
inhibition at 10 µM [2, 12]: -26%
inhibition at 10 µM [3, 13]: 2%
LPS % cell toxicity (primary rat microglia [4]; [14]): 0%
Quadrant (FIG. 5b) ([5]; primary HTS, 10 μM): Q4

CCCCOc1cc(C(=O)NCCN(CC)CC)c2ccccc2n1 [Cinchocaine]
Fibrin % cell toxicity (primary rat microglia [1]; [11]): 0%
inhibition at 10 µM [2, 12]: -57%
inhibition at 10 µM [3, 13]: 7%
LPS % cell toxicity (primary rat microglia [4]; [14]): 0%
Quadrant (FIG. 5b) ([5]; primary HTS, 10 μM): Q4

CN(C)CCCN1c2ccccc2Sc2ccccc21 [Promazine]
Fibrin % cell toxicity (primary rat microglia [1]; [15]): 1%
inhibition at 10 µM [2, 16]: 46%
inhibition at 10 µM [3, 17]: 117%
LPS % cell toxicity (primary rat microglia [4]; [18]): 64%
Quadrant (FIG. 5b) [5, 19]: Q1

CC12CC3CC(C)(C1)CC(N)(C3)C2 [Memantine]
Fibrin % cell toxicity (primary rat microglia [1]; [15]): 0%
inhibition at 10 µM [2, 16]: 2%
inhibition at 10 µM [3, 17]: 5%
LPS % cell toxicity (primary rat microglia [4]; [18]): 0%
Quadrant (FIG. 5b) [5, 19]: Q4

N=C(N)NCC1COC2(CCCCC2)O1 (centres unmarked) [Guanadrel]
Fibrin % cell toxicity (primary rat microglia [1]; [20]): 1%
inhibition at 10 µM [2, 21]: -1%
inhibition at 10 µM [3, 22]: 5%
LPS % cell toxicity (primary rat microglia [4]; [23]): 0%
Quadrant (FIG. 5b) [5, 19]: Q4

COc1ccc(Cc2nccc3cc(OC)c(OC)cc23)cc1OC [Papaverine]
Fibrin % cell toxicity (primary rat microglia [1]; [15]): 0%
inhibition at 10 µM [2, 16]: 12%
inhibition at 10 µM [3, 17]: 27%
LPS % cell toxicity (primary rat microglia [4]; [18]): 0%
Quadrant (FIG. 5b) [5, 19]: Q4

C[N+](C)(CCOc1ccccc1)Cc1ccccc1.O=C([O-])c1cc2ccccc2cc1O [Bephenium Hydroxynapthoate]
Fibrin % cell toxicity (primary rat microglia [1]; [11]): 1%
Fibrin % inhibition [2, 12]: 25%
LPS % inhibition [3, 13]: 19%
LPS % cell toxicity (primary rat microglia [4]; [14]): 0%
Quadrant (FIG. 5b) ([5]; primary HTS, 10 μM): Q4

O[C@H]1[C@H](O)[C@@H](O)[C@H](O)[C@@H](O)[C@H]1O [Inositol]
Fibrin % cell toxicity (primary rat microglia [1]; [20]): 0%
inhibition at 10 µM [2, 21]: -21%
inhibition at 10 µM [3, 22]: 11%
LPS % cell toxicity (primary rat microglia [4]; [23]): 0%
Quadrant (FIG. 5b) [5, 19]: Q4

O=C1OC2(c3ccc(O)cc3Oc3cc(O)ccc32)c2ccccc21 [Fluorescein]
Fibrin % cell toxicity (primary rat microglia [1]; [20]): 0%
inhibition at 10 µM [2, 21]: -3%
inhibition at 10 µM [3, 22]: 4%
LPS % cell toxicity (primary rat microglia [4]; [23]): 0%
Quadrant (FIG. 5b) [5, 19]: Q4

O=C1[O][Pt]2([NH][C@@H]3CCCC[C@H]3[NH]2)[O]C1=O [Oxaliplatin, reference compound]
IC50 (primary rat microglia [1]; Table 3): > 20 µM
IC50 (primary rat microglia [1]; cFib assay): > 20 µM
IC50 ([2]; Table 1, dose response 0.001-20 μM, triplicates, primary rat microglia, 48 h, read-out: Fibrin IC50): 5 µM
IC50 ([2]; Table 3, read-out: Fibrin IC50 (uM) (Suppl. Table 7)): 5 µM
IC50 ([2]; dose response, fibrin-induced microglia activation, read-out: Fibrin IC50): 5 µM
IC50 ([2]; fibrin-induced microglia activation, dose response, read-out: Fibrin IC50 (uM) (Suppl. Table 7)): 5 µM
Fibrin % inhibition ([2]; primary microglia HTS, fibrin stimulation, compounds at 10 μM): 66%
Fibrin % inhibition [2, 16]: 96%
IC50 ([3]; LPS-induced microglia activation, dose response, read-out: LPS IC50 (uM) (Suppl. Table 7)): 15 µM
IC50 ([3]; Table 1, dose response 0.001-20 μM, triplicates, primary rat microglia, 48 h, read-out: LPS IC50): 15 µM
IC50 ([3]; Table 3, read-out: LPS IC50 (uM) (Suppl. Table 7)): 15 µM
IC50 ([3]; dose response, LPS-induced microglia activation, read-out: LPS IC50): 15 µM
LPS % inhibition ([3]; primary microglia HTS, LPS stimulation, compounds at 10 μM): 21%
LPS % inhibition ([3]; primary microglia HTS, LPS stimulation, increased cell size (>800 μm^2) as marker of activation): 41%
IC50 (primary rat microglia [4]; LPS assay): > 20 µM
IC50 (primary rat microglia [4]; Table 3): > 20 µM
Hit ([5]; HTS hit classification): HIT (Hits were defined as molecules that exhibited greater than 50% inhibition of either fibrin or LPS activation)
Quadrant (FIG. 5b) [5, 10]: Q3
Quadrant (FIG. 5b) ([5]; Table 1, screen at 10 μM): Q3
Cherry-picked Hit (Suppl. Table 7) ([5]; Table 3): HIT (Hits were defined as molecules that exhibited greater than 50% inhibition of either fibrin or LPS activation)
Quadrant (FIG. 5b) ([5]; Table 3, screen at 10 μM): Q3
Cherry-picked Hit (Suppl. Table 7) ([5]; hit classification in microglia HTS): HIT (Hits were defined as molecules that exhibited greater than 50% inhibition of either fibrin or LPS activation)
Quadrant (FIG. 5b) [5, 19]: Q3
Quadrant (FIG. 5b) ([5]; quadrant by fibrin and LPS inhibition, HTS at 10 μM): Q3

CO[C@@]1(NC(=O)C(C(=O)O)c2ccc(O)cc2)C(=O)N2C(C(=O)O)=C(CSc3nnnn3C)CO[C@@H]21 (some centres unmarked) [Latamoxef]
Fibrin % cell toxicity (primary rat microglia [1]; [20]): 1%
inhibition at 10 µM [2, 21]: -18%
inhibition at 10 µM [3, 22]: 22%
LPS % cell toxicity (primary rat microglia [4]; [23]): 0%
Quadrant (FIG. 5b) [5, 19]: Q4

CCCCN1CCCCC1C(=O)Nc1c(C)cccc1C (centres unmarked) [Bupivacaine]
Fibrin % cell toxicity (primary rat microglia [1]; [11]): 1%
inhibition at 10 µM [2, 12]: 12%
inhibition at 10 µM [3, 13]: 23%
LPS % cell toxicity (primary rat microglia [4]; [14]): 0%
Quadrant (FIG. 5b) ([5]; primary HTS, 10 μM): Q4

O=C1/C(=C/c2cccs2)CCC/C1=C\c1cccs1 [Tenylidone]
Fibrin % cell toxicity (primary rat microglia [1]; [6]): 1%
inhibition at 10 µM [2, 7]: -9%
inhibition at 10 µM [3, 8]: 15%
LPS % cell toxicity (primary rat microglia [4]; [9]): 0%
Quadrant (FIG. 5b) [5, 10]: Q4

O=C(O)c1ccc[n+]([O-])c1 [Oxiniacic Acid]
Fibrin % cell toxicity (primary rat microglia [1]; [15]): 1%
inhibition at 10 µM [2, 16]: -6%
inhibition at 10 µM [3, 17]: 12%
LPS % cell toxicity (primary rat microglia [4]; [18]): 0%
Quadrant (FIG. 5b) [5, 19]: Q4

N=C(N)N/N=C/c1c(Cl)cccc1Cl [Guanabenz]
Fibrin % cell toxicity (primary rat microglia [1]; [20]): 1%
inhibition at 10 µM [2, 21]: -46%
LPS % inhibition ([3]; primary microglia HTS, LPS stimulation, activation = cell size >800 μm2): −18%
LPS % cell toxicity (primary rat microglia [4]; [23]): 0%
Quadrant (FIG. 5b) [5, 19]: Q4

CCOc1nc2cccc(C(=O)OC(C)OC(=O)OC3CCCCC3)c2n1Cc1ccc(-c2ccccc2-c2nn[nH]n2)cc1 (centres unmarked) [Candesartan Cilextil]
Fibrin % cell toxicity (primary rat microglia [1]; [11]): 1%
Fibrin % inhibition [2, 12]: −5%
LPS % inhibition [3, 13]: 10%
LPS % cell toxicity (primary rat microglia [4]; [14]): 0%
Quadrant (FIG. 5b) ([5]; primary HTS, 10 μM): Q4

O=C1CCO1 [Beta-propiolactone, Propiolactone]
Fibrin % cell toxicity (primary rat microglia [1]; [11]): 1%
Fibrin % inhibition [2, 12]: −12%
LPS % inhibition [3, 13]: 8%
LPS % cell toxicity (primary rat microglia [4]; [14]): 0%
Quadrant (FIG. 5b) ([5]; primary HTS, 10 μM): Q4

OC[C@H]1O[C@H](O[C@]2(CCl)O[C@H](CCl)[C@@H](O)[C@@H]2O)[C@H](O)[C@@H](O)[C@H]1Cl [Sucralose]
Fibrin % cell toxicity (primary rat microglia [1]; [6]): 1%
inhibition at 10 µM [2, 7]: 0%
inhibition at 10 µM [3, 8]: 16%
LPS % cell toxicity (primary rat microglia [4]; [9]): 0%
Quadrant (FIG. 5b) [5, 10]: Q4
